Experiment: Test of dissolving sesamin-class compounds into fats and oils (solubility)
Assay type: physicochemical
Protocol: Solubility of sesamin-class compounds to various fats and oils was determined. Sesamin, episesamin, and a mixture of sesamin and episesamin, sesamin:episesamin=51.1:48.2 (Takemoto Oil and Fat Co., Ltd.), were used as the sesamin-class compounds. The sesamin and the episesamin were prepared by isolating them from the mixture and purifying them. The respective sesamin-class compounds were dissolved into five different kinds of fats and oils, 100 g each, shown in Table 1 to determine a limit amount (solubility) of the respective sesamin-class compounds that can be dissolved completely. It is understood from Table 1 that the sesamin, the episesamin, and the mixture of the sesamin and the episesamin have different solubilities, and that the solubility varies in a manner that depends on the types of the fats and oils.

SMILES | Solubility in fats and oils: DG | Solubility in fats and oils: MCT-1 | Solubility in fats and oils: MCT-2 | Solubility in fats and oils: olive oil | Solubility in fats and oils: wheatgerm oil
c1cc2c(cc1[C@H]1OC[C@H]3[C@@H]1CO[C@@H]3c1ccc3c(c1)OCO3)OCO2 [EPISESAMIN, episesamin] | 1.0% | 2.5% | 2.5% | 0.5% | 0.75%
c1cc2c(cc1[C@H]1OC[C@H]3[C@@H]1CO[C@@H]3c1ccc3c(c1)OCO3)OCO2 [SESAMIN, sesamin] | 1.25% | 4.0% | 2.0% | 0.75% | 0.75%
